# Experiment: gradient 5% acetonitrile 3 min, to 50% in 2 min, to 85% in 15 min, held 3 min, 100 µL/min
# Settings: column: Zorbax Extend-C18 2.1 x 50 mm; eluents: water / acetonitrile, 0.1% formic acid
# How it was run: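 Using water and acetonitrile that each contained 0.1% formic acid, mixtures of ~100 pure standards were separated at 100 μL/min on a Zorbax Extend-C18 column (2.1 × 50 mm, 1.8 μm). The HPLC fed a quadrupole time-of-flight mass spectrometer working in positive and negative ionization mode, with dead and dwell volumes of 40 μL and 900 μL. Data were acquired over 3 months. Retention time was read from computationally picked adduct peaks after manual inspection of each.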
row,RP-LC retention time [s],Compound
1,662,O=C(Nc1ccc2c(c1)CN(C(=O)c1ccco1)CC2)c1cnccn1
2,1080,CCCN1C(=O)COc2ccc(-c3csc(NC(=O)c4ccc(C)cc4)n3)cc21
3,844,Cc1ccc(-n2c(=O)c3c(cc(C)n3C)n(CC(=O)Nc3cc(C)cc(C)c3)c2=O)cc1
4,668,Cc1cc(N2CCOCC2)n2nc(CN3CCN(c4cc(Cl)ccc4C)CC3)nc2n1
5,681,COc1ccc(-n2cc(C(=O)OCCc3ccccn3)c3cc(OC)c(OC)cc3c2=O)cc1
6,892,Cc1cc(C)n(-c2ccc(CNC(=O)c3ccc(Cl)s3)cc2)n1
7,789,CCCn1cc(CCNS(=O)(=O)c2cccc(C#N)c2)c2cccnc21
8,608,CCN1CCN(C(=O)CN2C(=O)CSc3ccc(C(=O)N4CCCCC4)cc32)CC1
9,692,CC(C)c1cc(=O)n(CC(=O)Nc2nc3c(s2)CCCC3)cn1
10,775,COc1ccc(NC(=O)C2CCCN2S(=O)(=O)c2cc3c(cc2C)NC(=O)CO3)cc1Cl (stereo not drawn)
11,582,Cc1cnc(C(=O)N[C@@H]2CCC[C@@H]2C(=O)NC(C)C)cn1
12,657,CCOc1ccc(S(=O)(=O)NCC2CCN(C(=O)c3cccn(C)c3=O)CC2)cc1C
13,527,Cc1ncsc1CN1CCCC(n2c(C)cnc2-c2cccnc2)C1 (stereo not drawn)
14,749,Cc1ccc2c(c1)sc1nncn12
15,671,O=C(Cn1c(=O)c2nncn2c2ncccc21)NCc1ccc(Cl)cc1
16,688,COc1cccc(NS(=O)(=O)c2c[nH]c3ncccc23)c1
17,938,COc1ccc(/C=C/c2cc3c(cc2OC)OCCO3)cc1O
18,643,Cc1noc(C)c1S(=O)(=O)NCCOc1cc(N2CCOCC2)ncn1
19,733,CCCNC(=O)C1CCCN(c2ccc(SCC(=O)Nc3ccc(C)cc3C)nn2)C1 (stereo not drawn)

row,RP-LC retention time [s],Compound
1,852,O=C(Nc1ccc2ncsc2c1)c1cc(Cl)sc1Cl
2,567,CCc1nc2cc3c(cc2n1CC(=O)N1CCOCC1)OCCO3
3,1170,CCN1C(=O)COc2ccc(-c3noc(-c4cccc(F)c4)n3)cc21
4,768,COc1cccc(-c2cc(NCc3ccc4c(c3)OCO4)nc(N)n2)c1
5,822,CCN1C(=O)c2c(C(=O)Nc3ccc(C)cc3)ncn2CC1(C)C(=O)NC1CCCC1 (stereo not drawn)
6,674,CC(C)CN1C(=O)c2cccn2CC1C(=O)N1CCCC1 (stereo not drawn)
7,887,COc1ccc(Cl)cc1NC(=O)c1cccn1-c1cccnc1
8,566,COCCN1CCC(CNS(=O)(=O)c2ccc(F)cc2C)CC1
9,783,COc1ccc(CNC(=O)NC2CCN(c3ccc(F)c(C)c3)C2=O)cc1 (stereo not drawn)
10,554,CCN(CC)CCNC(=O)c1ccc2c(c1)N(S(C)(=O)=O)CC2
11,858,Cc1noc(C)c1S(=O)(=O)N1CCC(C(=O)NCCc2csc(-c3cccs3)n2)CC1
12,1030,Cc1ccc(C)c(NC(=O)Cn2cccc(-c3nc(-c4ccc(Br)cc4)no3)c2=O)c1
13,757,COCc1c(C(=O)O)nnn1-c1ccc(C)c(C)c1
14,844,O=C(CCc1nc2ccccc2n(CC(=O)NC2CCCCC2)c1=O)NC1CCCCC1
15,845,Cc1ccc(S(=O)(=O)N2CC(c3nc(C)no3)C3(CCOCC3)C2)cc1 (stereo not drawn)
16,1180,CC(C)Oc1ccc(-c2noc(CN3N=NC4C(=O)N(c5ccc6c(c5)CCC6)C(=O)C43)n2)cc1 (stereo not drawn)
17,986,CCOc1ccc(-c2ccc(=O)n(CCc3nc(-c4ccc5c(c4)OCO5)no3)n2)cc1
18,1130,CCCNC(=O)c1sc(-n2nc(C)c(Cl)c2C)nc1C

row,Compound,RP-LC retention time [s]
1,CCC(=O)N1CC(=O)Nc2ccc(Br)cc2C1c1ccccc1 (stereo not drawn),749
